Read-outs that look alike come from different tables or passages of the source.
Legend:
[1] = test system: HCV RNA replication (HCV subgenomic replicon in MP-1 cells); experiment: Cell-Based HCV RNA Replication Luciferase Reporter Assay; settings: Hepatitis C virus; for inhibition at 50 µM: read-out: Inhibition at 50 μM (%); for EC50: 72 h
[2] = Pharmacokinetics in monkeys; format: in vivo, cynomolgus monkeys
Experimental: (§1) The pharmacokinetic properties of Compound 9 were determined in male Sprague-Dawley rats, beagle dogs and cynomolgus monkeys (n=3 in each species) with an oral dose of 5 mg/kg and iv dose of 2 mg/kg. PK parameters were analyzed using the WinNonlin noncompartmental model.

Pharmacokinetics in rats = format: in vivo, male Sprague-Dawley rats; settings: Rat
Experimental: as §1

Cross-species PK summary = format: in vivo, rats, monkeys and dogs; settings: Sprague-Dawley (rat), beagle (dog), cynomolgus (monkey), plasma
Experimental: as §1

Pharmacokinetics in dogs = format: in vivo, beagle dogs; settings: Dog
Experimental: as §1

[3] = Cytotoxicity (CellTiter-Blue / MTT) run with the replicon assay; format: cell-based; settings: human, MP-1 cells
Experimental: The assay outline includes the following steps on Day 1: (1) Plate cells at a density of 10,000 cells/well of a 96 well plate and incubate 37° C.; (2) Make compound dilutions; (3) Add compound dilutions to cells; (4) Incubate for 72 h. The assay includes the following steps on Day 4: (1) Perform Cell titer blue assay for cytotoxicity (the assay is based on the reduction of resazurin (cell titer blue) into a fluorescent product, resorufin, in metabolically active cells, and the assay can be duplexed with the assay used for HCV replicon luciferase reporter assay); (2) Perform luciferase assay with the Bright-Glo luciferase substrate (Promega) and read luminescence; (3) Process results.
Under the Alamar blue assay protocol, the assay plates are removed from a 37° C. incubator, and 20 μl of CellTiter-Blue™ Reagent is added. The cells are incubated in the 37° C. incubator for 3 h. The assay plates are shaken for 10 sec and fluorescence at 560Ex/590Em nm is recorded. The results are expressed relative to the 100% untreated control using the following equation: […]=100−[(RFUcompound−RFUblank/RFUuntreated−RFUblank)×100]. Alternatively, under the MTT protocol the extent of cytotoxicity is determined via metabolism of the vital dye 3-(4,5-dimethylthiaxol-2-yl)-2,5-diphenyltetrazolium bromide (MTT). MTT (1 mg/ml) was added to each well and plates incubated for 3 hours incubation at 37° C. Wells were aspirated, iso-propanol […] was added and absorbance values read at 540/690 nm. Compound concentrations that developed 50% cytotoxicity (CC50) were calculated using non-linear regression analysis.

[4] = oral 5 mg/kgBW, read-out: Cmax (maximum concentration observed following the oral dose)
[5] = MP-1 cells, luciferase readout, read-out: EC50

Row | SMILES | inhibition at 50 µM ([1]; 50 μM compound) [%] | EC50 [1, 5] [µM] | CC50 at 72 h [3] [µM] | other results
1 | C#Cc1cc([C@@H]2O[C@H](CO)[C@@H](O)[C@@]2(C)O)n2ncnc(N)c12 [Compound 17, 4-Amino-5-ethynyl-7-(2-C-methyl-β-D-ribofuranosyl)-pyrrolo[2,1-f][1,2,4]triazine] | 98 | – | – | –
2 | C[C@@]1(O)[C@H](O)[C@@H](CO)O[C@H]1c1ccc2c(N)ncnn12 [Compound 9, 4-amino-7-(2-C-methyl-β-D-ribofuranosyl)-pyrrolo[2,1-f][1,2,4]triazine] | 99 | 1.3 | 365 | CL (total clearance) ([2]; Monkey, single iv 2 mg/kgBW): 20.5 mL/min/kgBW; Vss (steady state volume distribution) ([2]; Monkey, single iv 2 mg/kgBW): 2.43 L/kgBW; bioavailability ([2]; cynomolgus monkey, plasma, 5 mg/kg, oral 5 mg/kgBW vs iv 2 mg/kgBW, read-out: F % (oral bioavailability)): 33%; Cmax ([2]; cynomolgus monkey, plasma, 5 mg/kg, oral 5 mg/kgBW, read-out: Cmax (maximum concentration observed following the oral dose)): 820 nM; AUC ([2]; cynomolgus monkey, plasma, 5 mg/kg, single iv (2 mg/kgBW) or oral dose (5 mg/kgBW), read-out: AUC (area under the curve of plasma exposure)): 5 µM·h; half-life ([2]; cynomolgus monkey, plasma, single iv (2 mg/kgBW) or oral dose (5 mg/kgBW), read-out: t1/2 (terminal elimination half-life) (converted)): 4.3 h; Cmax (Pharmacokinetics in rats; [4]): 2380 nM; CL (total clearance) (Pharmacokinetics in rats; single iv 2 mg/kgBW): 18.8 mL/min/kgBW; Vss (steady state volume distribution) (Pharmacokinetics in rats; single iv 2 mg/kgBW): 4.19 L/kgBW; bioavailability (Pharmacokinetics in rats; male, Sprague-Dawley, plasma, 5 mg/kg, oral 5 mg/kgBW vs iv 2 mg/kgBW, read-out: F % (oral bioavailability)): 83%; AUC (Pharmacokinetics in rats; male, Sprague-Dawley, plasma, 5 mg/kg, single iv (2 mg/kgBW) or oral dose (5 mg/kgBW), read-out: AUC (area under the curve of plasma exposure)): 13 µM·h; half-life (Pharmacokinetics in rats; male, Sprague-Dawley, plasma, single iv (2 mg/kgBW) or oral dose (5 mg/kgBW), read-out: t1/2 (terminal elimination half-life) (converted)): 4 h; bioavailability (Cross-species PK summary; po, 5 mg/kg, range over rat, monkey, dog, read-out: oral bioavailability across species): 33 to 96%; half-life (Cross-species PK summary; range over preclinical animal species (rat, monkey, dog), read-out: plasma / elimination half-life across species): 4 to 7.6 h; Cmax (Pharmacokinetics in dogs; [4]): 8360 nM; CL (total clearance) (Pharmacokinetics in dogs; single iv 2 mg/kgBW): 11.4 mL/min/kgBW; Vss (steady state volume distribution) (Pharmacokinetics in dogs; single iv 2 mg/kgBW): 5.22 L/kgBW; bioavailability (Pharmacokinetics in dogs; beagle, plasma, 5 mg/kg, oral 5 mg/kgBW vs iv 2 mg/kgBW, read-out: F % (oral bioavailability)): 96%; AUC (Pharmacokinetics in dogs; beagle, plasma, 5 mg/kg, single iv (2 mg/kgBW) or oral dose (5 mg/kgBW), read-out: AUC (area under the curve of plasma exposure)): 24.9 µM·h; half-life (Pharmacokinetics in dogs; beagle, plasma, single iv (2 mg/kgBW) or oral dose (5 mg/kgBW), read-out: t1/2 (terminal elimination half-life) (converted)): 7.6 h
3 | C[C@@]1(O)[C@H](O)[C@@H](CO)O[C@H]1c1ccc2c(N)nc(N)nn12 [Compound 20, 2,4-diamino-7-(2-C-methyl-β-D-ribofuranosyl)-pyrrolo[2,1-f][1,2,4]triazine] | 19 | – | – | –
4 | C[C@@]1(O)[C@H](O)[C@@H](CO)O[C@H]1c1cc(I)c2c(N)ncnn12 [Compound 13, 4-amino-5-iodo-(2-C-methyl-β-D-ribofuranosyl)-pyrrolo[2,1-f][1,2,4]triazine] | 97 | – | – | –
5 | C[C@@]1(O)[C@H](O)[C@@H](CO)O[C@H]1c1c(F)cc2c(N)ncnn12 [Compound 32, 4-Amino-6-fluoro-7-(2-C-methyl-β-D-ribofuranosyl)-pyrrolo[2,1-f][1,2,4]triazin-7-yl] | 23 | – | – | –
6 | CC(C)(C)C(=O)OCOP(=O)(OCOC(=O)C(C)(C)C)OC[C@H]1O[C@@H](c2ccc3c(N)ncnn23)[C@](C)(O)[C@@H]1O [Compound 34, Bis-POM (pivaloyloxymethyl) prodrug of 4-amino-7-(2-C-methyl-β-D-ribofuranosyl)-pyrrolo[2,1-f][1,2,4]triazine] | – | – | 45 | EC50 [1]: 3.8 µM; inhibition at 50 µM [1]: 100%
7 | C[C@@]1(O)[C@H](O)[C@@H](CO)O[C@H]1c1cc(Cl)c2c(N)ncnn12 [Compound 12, 4-amino-5-chloro-7-(2-C-methyl-β-D-ribofuranosyl)-pyrrolo[2,1-f][1,2,4]triazine] | 99 | 0.22 | 6.5 | –
8 | C[C@@]1(O)[C@H](O)[C@@H](CO)O[C@H]1c1cc(-c2ncco2)c2c(N)ncnn12 [Compound 22, 4-amino-5-oxazol-2-yl-7-(2-C-methyl-β-D-ribofuranosyl)-pyrrolo[2,1-f][1,2,4]triazine] | 95 | – | – | –
9 | C[C@@]1(O)[C@H](O)[C@@H](CO)O[C@H]1c1cc(F)c2c(N)ncnn12 [Compound 11, 4-amino-5-fluoro-7-(2-C-methyl-β-D-ribofuranosyl)-pyrrolo[2,1-f][1,2,4]triazine] | 97 | 3.1 | > 100 | –
10 | C[C@@]1(O)[C@H](O)[C@@H](CO)O[C@H]1c1cc(-c2ncc[nH]2)c2c(N)ncnn12 [Compound 38, 4-amino-5-imidazole-7-(2-C-methyl-β-D-ribofuranosyl)-pyrrolo[2,1-f][1,2,4]triazine] | 99 | – | – | –
11 | C[C@@]1(O)[C@H](O)[C@@H](CO)O[C@H]1c1cc(C(N)=O)c2c(N)ncnn12 [Compound 15, 4-amino-7-(2-C-methyl-β-D-ribofuranosyl)-pyrrolo[2,1-f][1,2,4]triazine-5-carboxylic acid amide] | 100 | 0.0062 | 0.37 | –
12 | C[C@@]1(O)[C@H](O)[C@@H](CO)O[C@H]1c1cc(C2=NCCN2)c2c(N)ncnn12 [Compound 35, 4-amino-5-imidazoline-7-(2-C-methyl-β-D-ribofuranosyl)-pyrrolo[2,1-f][1,2,4]triazine] | 99 | – | – | –
13 | C[C@@]1(O)[C@H](O)[C@@H](CO)O[C@H]1c1cc(C#C[Si](C)(C)C)c2c(N)ncnn12 [Compound 16, 4-amino-5-trimethylsilanylethynyl-7-(2-C-methyl-β-D-ribofuranosyl)-pyrrolo[2,1-f][1,2,4]triazine] | 99 | – | – | –
14 | C[C@@]1(O)[C@H](O)[C@@H](CO)O[C@H]1c1cc(C#N)c2c(N)ncnn12 [Compound 14, 4-amino-7-(2-C-methyl-β-D-ribofuranosyl)-pyrrolo[2,1-f][1,2,4]triazine-5-carbonitrile] | 100 | 1.4 | 18.8 | –
